Assay results from PubChem BioAssay (NCI).
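Results reflect a 48-hour exposure of cells in 96-well plates to compound at five concentrations. At the TGI there is no net growth.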

Assays:
Experiment in all cases: NCI anticancer screen, dose series, 48 h
786-0 renal = system: 786-0 renal
ACHN renal = system: ACHN renal
HCT-116 colon = system: HCT-116 colon
HL-60(TB) leukemia = system: HL-60(TB) leukemia
MDA-MB-435 = system: MDA-MB-435
RXF 393 renal = system: RXF 393 renal
SF-295 CNS = system: SF-295 CNS
SR leukemia = system: SR leukemia
U251 CNS = system: U251 CNS
A498 renal = system: A498 renal
MALME-3M melanoma = system: MALME-3M melanoma

SMILES	TGI (786-0 renal) [µM]	TGI (ACHN renal) [µM]	TGI (HCT-116 colon) [µM]	TGI (HL-60(TB) leukemia) [µM]	TGI (MDA-MB-435) [µM]	TGI (RXF 393 renal) [µM]	TGI (SF-295 CNS) [µM]	TGI (SR leukemia) [µM]	TGI (U251 CNS) [µM]	TGI (A498 renal) [µM]	TGI (MALME-3M melanoma) [µM]
COc1ccc(N=c2oc3ccccc3cc2C(N)=O)cc1	68.8	37.1	> 100	> 100	> 100	> 100	75.1	> 100	> 100		
CSc1ncnc2c1ncn2CCC(=O)O	> 100	> 100	> 100	> 100	> 100	> 100	> 100	> 100		> 100	> 100
COc1cc(OC)cc(OCc2nc3cc(C(F)(F)F)ccc3nc2-c2ccccc2)c1	> 100	> 100	> 100	> 100	> 100	> 100	> 100	> 100	> 100		> 100
O=C1/C(=C/c2cccc(Cl)c2)CCCc2ccccc21	33.7	29.6	26.1	30.7	31.6		31.6	35.2	29.4		33.8
CC1=NN(c2nc(N)nc(CN3CCOCC3)n2)C(C)(C)C1	31.2	> 100	> 100	30.1	> 100	> 100	> 100	> 100	> 100	> 100	
COc1ccccc1Nc1nc2c([nH]1)c(=O)n(C)c(=O)n2C	> 10			> 10	> 10	> 10	> 10	> 10			> 10
COc1ccc(S(=O)(=O)N2C(=O)CCC2C(=O)NC(N)=O)cc1 (stereo not given)	> 100	> 100	> 100	> 100	> 100		> 100	> 100	> 100	> 100	> 100
O=C(Nc1ccc(C(F)(F)F)cc1)NC(F)(F)F	> 100	> 100	> 100	> 100	> 100	> 100		> 100	> 100	> 100	
Cc1ccc(CC2(C(=O)O)Cc3ccc(C)cc3C2)cc1 (stereo not given)	> 100	> 100	> 100	> 100	> 100		> 100	> 100	> 100	> 100	> 100
C=CCOC(=O)CC[C@H](NC(=O)[C@@H](CCC(F)(F)F)Cc1ccc(O)cc1)C(=O)OCC=C	> 100	> 100	> 100	> 100	76	> 100	> 100	> 100			39.1
CCOCCOCCOCc1nc(C#N)c(N)o1	> 100	> 100	> 100	> 100	> 100	> 100	> 100	> 100	> 100	> 100	
N#Cc1ccc(C(O)C(F)(F)c2nc3ccccc3o2)cc1 (stereo not given)	> 100	> 100	> 100	> 100	> 100	> 100	> 100	> 100	> 100		
CC1=NN(c2cccc(Cl)c2)C2(SCC(=O)N2c2nc3ccccc3s2)C1=CC=Cc1ccccc1 (stereo not given)	> 100	65.9	73.7	3.04	> 100	64.1	> 100	61.8	48.8	61.9	
CC(=O)Nc1ccc2c3c(cc(O)c2c1)N(C(=O)CCCC(=O)N1CC(CCl)c2c1cc(O)c1cc(NC(C)=O)ccc21)CC3CCl (stereo not given)	0.195	< 0.0112		0.0153	0.019	< 0.01		< 0.01	< 0.0139		0.0318
FC1(F)[Se]C2C3CCC(C3)C2C1(F)F (stereo not given)	> 100	> 100	> 100		> 100	> 100	> 100	> 100	> 100	> 100	> 100
N#CC12C(=O)NC(=O)C1(C#N)C1C=CC2CC1 (stereo not given)	> 100	> 100	> 100	> 100	> 100	> 100	> 100	> 100	> 100		> 100
N#C/C(=C\c1ccc(F)cc1)c1nc(-c2cc3ccccc3oc2=O)cs1	37.1	> 100	> 100	> 100	> 100	64.2	30.3	> 100	61.4		52.9
CC1=C(C(=O)OC2CC3CCC2(C)C3(C)C)C2Nc3ccccc3N(C)C2O1 (stereo not given)	9.09	11.2	7.36	4.97	3.13	18.5	3.04	9.52	16.6	18.9	
